Assay results from PubChem BioAssay AID248 (DTP/NCI, 2004).
Where “and” joins values, the source holds several entries; their conditions need not be identical. Equal values may be shown once. Toxic doses and inconclusive results are not listed.

Tested on: L1210 leukemia ip in BDF1 mice, survival T/C
Assay: NCI In Vivo Anticancer Drug Screen. Data for tumor model L1210 Leukemia (intraperitoneal) in B6D2F1 (BDF1) mice
Conditions: endpoint: mean survival time, higher = longer survival
How it was run: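 Transplanted-tumor mice were given test agent; controls received vehicle only. Survival readings from the two groups were divided (treated over control).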

[1] = dose: 50.0 mg/kg/injection, schedule: Q04DX002 (ip), vehicle: Klucel (hydroxypropylcellulose) (HPC)
[2] = dose: 100.0 mg/kg/injection, schedule: Q04DX002 (ip), vehicle: Klucel (hydroxypropylcellulose) (HPC)
[3] = dose: 200.0 mg/kg/injection, schedule: Q04DX002 (ip), vehicle: Klucel (hydroxypropylcellulose) (HPC)
[4] = dose: 400.0 mg/kg/injection, schedule: Q04DX002 (ip), vehicle: Klucel (hydroxypropylcellulose) (HPC)
[5] = dose: 100.0 mg/kg/injection, schedule: Q01DX001 (ip), vehicle: saline
[6] = dose: 200.0 mg/kg/injection, schedule: Q01DX001 (ip), vehicle: saline
[7] = dose: 100.0 mg/kg/injection, schedule: Q01DX009 (ip), vehicle: Klucel (hydroxypropylcellulose) (HPC)
[8] = dose: 100.0 mg/kg/injection, schedule: Q04DX003 (ip), vehicle: Klucel (hydroxypropylcellulose) (HPC)
[9] = dose: 100.0 mg/kg/injection, schedule: Q04DX003 (ip), vehicle: saline
[10] = dose: 200.0 mg/kg/injection, schedule: Q01DX009 (ip), vehicle: Klucel (hydroxypropylcellulose) (HPC)
[11] = dose: 200.0 mg/kg/injection, schedule: Q04DX003 (ip), vehicle: Klucel (hydroxypropylcellulose) (HPC)
[12] = dose: 200.0 mg/kg/injection, schedule: Q04DX003 (ip), vehicle: saline
[13] = dose: 400.0 mg/kg/injection, schedule: Q04DX003 (ip), vehicle: Klucel (hydroxypropylcellulose) (HPC)
[14] = dose: 400.0 mg/kg/injection, schedule: Q04DX003 (ip), vehicle: saline
[15] = dose: 100.0 mg/kg/injection, schedule: Q01DX001 (ip), vehicle: saline with Tween-80
[16] = dose: 200.0 mg/kg/injection, schedule: Q01DX001 (ip), vehicle: saline with Tween-80
[17] = dose: 400.0 mg/kg/injection, schedule: Q01DX001 (ip), vehicle: saline with Tween-80
[18] = dose: 100.0 mg/kg/injection, schedule: Q01DX009 (ip), vehicle: saline
[19] = dose: 200.0 mg/kg/injection, schedule: Q01DX009 (ip), vehicle: saline
[20] = dose: 400.0 mg/kg/injection, schedule: Q01DX009 (ip), vehicle: saline
[21] = dose: 12.5 mg/kg/injection, schedule: Q01DX009 (ip), vehicle: saline
[22] = dose: 25.0 mg/kg/injection, schedule: Q01DX009 (ip), vehicle: saline
[23] = dose: 100.0 mg/kg/injection, schedule: Q01DX009 (ip), vehicle: saline with Tween-80
[24] = dose: 200.0 mg/kg/injection, schedule: Q01DX009 (ip), vehicle: saline with Tween-80

## Nc1ccccc1S(N)(=O)=O
dose: 25.0 mg/kg/injection, schedule: Q04DX002 (ip), vehicle: Klucel (hydroxypropylcellulose) (HPC)
  T/C: 97 % of control
[1]
  T/C: 97 % of control
[2]
  T/C: 101 % of control and 120 % of control
[3]
  T/C: 97 % of control and 100 % of control
[4]
  T/C: 113 % of control

## C=CCCCCCCCCC(=O)Nc1ccc(Cl)cc1C(=O)c1ccccc1
[2]
  T/C: 95 % of control
[3]
  T/C: 92 % of control
[4]
  T/C: 89 % of control

## COc1ccc(NC(=O)NNC(=O)CCCC(=O)NNC(=O)Nc2ccc(OC)cc2)cc1
dose: 50.0 mg/kg/injection, schedule: Q01DX001 (ip), vehicle: saline
  T/C: 112 % of control
[5]
  T/C: 102 % of control
[6]
  T/C: 93 % of control
dose: 400.0 mg/kg/injection, schedule: Q01DX001 (ip), vehicle: saline
  T/C: 93 % of control

## Cn1c2ccccc2[n+]2c(N)scc12
dose: 12.5 mg/kg/injection, schedule: Q04DX002 (ip), vehicle: saline
  T/C: 101 % of control
dose: 25.0 mg/kg/injection, schedule: Q04DX002 (ip), vehicle: saline
  T/C: 115 % of control
dose: 50.0 mg/kg/injection, schedule: Q04DX002 (ip), vehicle: saline
  T/C: 96 % of control and 91 % of control
dose: 100.0 mg/kg/injection, schedule: Q04DX002 (ip), vehicle: saline
  T/C: 102 % of control

## COC1(OC)C2(Cl)C(Cl)=C(Cl)C1(Cl)C1C(=O)C=CC(=O)C12 (centres undefined)
[7]
  T/C: 104 % of control
[8]
  T/C: 100 % of control
[9]
  T/C: 98 % of control
[10]
  T/C: 96 % of control
[11]
  T/C: 98 % of control
[12]
  T/C: 93 % of control
dose: 400.0 mg/kg/injection, schedule: Q01DX009 (ip), vehicle: Klucel (hydroxypropylcellulose) (HPC)
  T/C: 98 % of control
[13]
  T/C: 96 % of control
[14]
  T/C: 101 % of control

## COC1CC=CC2=C1CCC1C2CC2C(=O)C1(C)CCC2O (centres undefined)
[9]
  T/C: 94 % of control
[12]
  T/C: 100 % of control
[14]
  T/C: 97 % of control

## CC1CCC(C(C)C)/C(=N\O)C1 (centres undefined)
[15]
  T/C: 93 % of control
[16]
  T/C: 97 % of control
[17]
  T/C: 93 % of control

## O=C1c2cc(F)ccc2-c2cc([N+](=O)[O-])ccc21
dose: 100.0 mg/kg/injection, schedule: Q01DX001 (ip), vehicle: carboxymethylcellulose (CMC)
  T/C: 94 % of control
dose: 200.0 mg/kg/injection, schedule: Q01DX001 (ip), vehicle: carboxymethylcellulose (CMC)
  T/C: 94 % of control
dose: 400.0 mg/kg/injection, schedule: Q01DX001 (ip), vehicle: carboxymethylcellulose (CMC)
  T/C: 99 % of control

## Nc1nc2ccc([N+](=O)[O-])cc2s1
dose: 50.0 mg/kg/injection, schedule: Q01DX009 (ip), vehicle: Klucel (hydroxypropylcellulose) (HPC)
  T/C: 105 % of control
[7]
  T/C: 104 % of control
[9]
  T/C: 97 % of control
[12]
  T/C: 101 % of control
[14]
  T/C: 86 % of control

## O=C(OCC(Cl)(Cl)Cl)OCC(Cl)(Cl)Cl
[8]
  T/C: 98 % of control
[11]
  T/C: 98 % of control

## NC(N)=Nc1nc2ccc([N+](=O)[O-])cc2[nH]1
[18]
  T/C: 93 % of control
[9]
  T/C: 90 % of control
[19]
  T/C: 91 % of control
[12]
  T/C: 94 % of control
[20]
  T/C: 96 % of control
[14]
  T/C: 94 % of control

## C=CCSc1ccc(Cl)cc1
[5]
  T/C: 105 % of control
[6]
  T/C: 103 % of control

## C=CC[N+]12CCCC1C(=C)CC2 (centres undefined)
[21]
  T/C: 106 % of control
[22]
  T/C: 100 % of control
dose: 50.0 mg/kg/injection, schedule: Q01DX009 (ip), vehicle: saline
  T/C: 97 % of control and 106 % of control

## O=C(NC(=O)C(Cl)Cl)Nc1cccc2c1-c1ccccc1C2
dose: 100.0 mg/kg/injection, schedule: Q01DX001 (ip), vehicle: Klucel (hydroxypropylcellulose) (HPC)
  T/C: 94 % of control
[7]
  T/C: 108 % of control
[8]
  T/C: 88 % of control
dose: 200.0 mg/kg/injection, schedule: Q01DX001 (ip), vehicle: Klucel (hydroxypropylcellulose) (HPC)
  T/C: 97 % of control
[10]
  T/C: 100 % of control
[11]
  T/C: 92 % of control
dose: 400.0 mg/kg/injection, schedule: Q01DX001 (ip), vehicle: Klucel (hydroxypropylcellulose) (HPC)
  T/C: 92 % of control
[13]
  T/C: 93 % of control

## COC(=O)/C=C/C(=O)NC(N)=O
dose: 6.25 mg/kg/injection, schedule: Q01DX009 (ip), vehicle: saline
  T/C: 93 % of control
[21]
  T/C: 98 % of control
[22]
  T/C: 101 % of control

## CC1(C)OC(=O)CC(=O)O1
[23]
  T/C: 94 % of control
[18]
  T/C: 100 % of control
[9]
  T/C: 91 % of control
[24]
  T/C: 94 % of control
[19]
  T/C: 93 % of control
[12]
  T/C: 91 % of control
[20]
  T/C: 87 % of control
[14]
  T/C: 93 % of control

## CCCN(CCC)CCNCC(Cc1ccccc1)c1ccccc1 (centres undefined)
[1]
  T/C: 99 % of control
[2]
  T/C: 99 % of control

## CN=C(NC)c1ccc(NC(=O)c2ccc(C(=O)Nc3ccc(C(=NC)NC)cc3)cc2)cc1
dose: 0.23 mg/kg/injection, schedule: Q01DX Z (ip), vehicle: methylcellulose (MC)
  T/C: 96 % of control and 124 % of control
dose: 0.9 mg/kg/injection, schedule: Q01DX Z (ip), vehicle: methylcellulose (MC)
  T/C: 110 % of control and 177 % of control and 205 % of control
dose: 1.87 mg/kg/injection, schedule: Q01DX Z (ip), vehicle: methylcellulose (MC)
  T/C: 150 % of control
dose: 1.9 mg/kg/injection, schedule: Q01DX Z (ip), vehicle: methylcellulose (MC)
  T/C: 124 % of control
dose: 3.75 mg/kg/injection, schedule: Q01DX Z (ip), vehicle: methylcellulose (MC)
  T/C: 161 % of control
dose: 7.5 mg/kg/injection, schedule: Q01DX Z (ip), vehicle: methylcellulose (MC)
  T/C: 160 % of control
dose: 15.0 mg/kg/injection, schedule: Q01DX Z (ip), vehicle: methylcellulose (MC)
  T/C: 124 % of control
dose: 15.0 mg/kg/injection, schedule: Q01DX Z (oral), vehicle: carboxymethylcellulose (CMC)
  T/C: 111 % of control
dose: 30.0 mg/kg/injection, schedule: Q01DX Z (ip), vehicle: methylcellulose (MC)
  T/C: 108 % of control
dose: 30.0 mg/kg/injection, schedule: Q01DX Z (oral), vehicle: carboxymethylcellulose (CMC)
  T/C: 102 % of control
dose: 60.0 mg/kg/injection, schedule: Q01DX Z (oral), vehicle: carboxymethylcellulose (CMC)
  T/C: 107 % of control
dose: 120.0 mg/kg/injection, schedule: Q01DX Z (oral), vehicle: carboxymethylcellulose (CMC)
  T/C: 96 % of control
dose: 240.0 mg/kg/injection, schedule: Q01DX Z (oral), vehicle: carboxymethylcellulose (CMC)
  T/C: 115 % of control
dose: 480.0 mg/kg/injection, schedule: Q01DX Z (oral), vehicle: carboxymethylcellulose (CMC)
  T/C: 113 % of control

## O=C(Nc1cccc(S(=O)(=O)F)c1)Oc1ccc([N+](=O)[O-])cc1
[15]
  T/C: 100 % of control
[23]
  T/C: 95 % of control and 100 % of control
dose: 100.0 mg/kg/injection, schedule: Q04DX002 (ip), vehicle: saline with Tween-80
  T/C: 91 % of control
dose: 100.0 mg/kg/injection, schedule: Q04DX003 (ip), vehicle: saline with Tween-80
  T/C: 95 % of control
[16]
  T/C: 100 % of control
[24]
  T/C: 98 % of control and 102 % of control
dose: 200.0 mg/kg/injection, schedule: Q04DX002 (ip), vehicle: saline with Tween-80
  T/C: 91 % of control
dose: 200.0 mg/kg/injection, schedule: Q04DX003 (ip), vehicle: saline with Tween-80
  T/C: 100 % of control
[17]
  T/C: 98 % of control
dose: 400.0 mg/kg/injection, schedule: Q01DX009 (ip), vehicle: saline with Tween-80
  T/C: 88 % of control
dose: 400.0 mg/kg/injection, schedule: Q04DX002 (ip), vehicle: saline with Tween-80
  T/C: 90 % of control

## O=C(OCCCl)Oc1c(Cl)cc([N+](=O)[O-])cc1[N+](=O)[O-]
[8]
  T/C: 101 % of control
[11]
  T/C: 101 % of control
[13]
  T/C: 86 % of control

## CN(C)OC(=O)Nc1cccc([N+](=O)[O-])c1
dose: 100.0 mg/kg/injection, schedule: Q04DX002 (ip), vehicle: other
  T/C: 87 % of control
dose: 200.0 mg/kg/injection, schedule: Q04DX002 (ip), vehicle: other
  T/C: 102 % of control
dose: 400.0 mg/kg/injection, schedule: Q04DX002 (ip), vehicle: other
  T/C: 117 % of control
